Several values for one entry are separate records, joined by “and”; a condition that tells them apart may be missing. Equal entries are not always repeated. Toxic doses and inconclusive results are not listed. Rule as the data show it: active = T/C of 150% or more; inactive = T/C below 125%.
Tested on: L1210 leukemia ip in BDF1 mice, survival T/C
Assay: NCI In Vivo Anticancer Drug Screen. Data for tumor model L1210 Leukemia (intraperitoneal) in B6D2F1 (BDF1) mice
Details: endpoint: mean survival time, higher = longer survival
Summary of the method: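 Tumor cells were implanted, animals were treated, and survival was followed. The result divides the treated measurement by the vehicle-control measurement.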

[1] = dose: 12.5 mg/kg/injection, schedule: Q01DX009 (ip), vehicle: saline with Tween-80
[2] = dose: 100.0 mg/kg/injection, schedule: Q04DX003 (ip), vehicle: saline with Tween-80
[3] = dose: 100.0 mg/kg/injection, schedule: Q01DX009 (ip), vehicle: saline with Tween-80
[4] = dose: 200.0 mg/kg/injection, schedule: Q01DX009 (ip), vehicle: saline with Tween-80
[5] = dose: 400.0 mg/kg/injection, schedule: Q01DX009 (ip), vehicle: saline with Tween-80
[6] = dose: 100.0 mg/kg/injection, schedule: Q01DX009 (ip), vehicle: Klucel (hydroxypropylcellulose) (HPC)
[7] = dose: 200.0 mg/kg/injection, schedule: Q01DX009 (ip), vehicle: Klucel (hydroxypropylcellulose) (HPC)
[8] = dose: 400.0 mg/kg/injection, schedule: Q01DX009 (ip), vehicle: Klucel (hydroxypropylcellulose) (HPC)
[9] = dose: 100.0 mg/kg/injection, schedule: Q01DX001 (ip), vehicle: saline with Tween-80
[10] = dose: 200.0 mg/kg/injection, schedule: Q01DX001 (ip), vehicle: saline with Tween-80
[11] = dose: 400.0 mg/kg/injection, schedule: Q01DX001 (ip), vehicle: saline with Tween-80
[12] = dose: 100.0 mg/kg/injection, schedule: Q04DX003 (ip), vehicle: Klucel (hydroxypropylcellulose) (HPC)
[13] = dose: 200.0 mg/kg/injection, schedule: Q04DX003 (ip), vehicle: Klucel (hydroxypropylcellulose) (HPC)
[14] = dose: 400.0 mg/kg/injection, schedule: Q04DX003 (ip), vehicle: Klucel (hydroxypropylcellulose) (HPC)
[15] = dose: 200.0 mg/kg/injection, schedule: Q04DX003 (ip), vehicle: saline with Tween-80
[16] = dose: 100.0 mg/kg/injection, schedule: Q01DX001 (ip), vehicle: saline
[17] = dose: 200.0 mg/kg/injection, schedule: Q01DX001 (ip), vehicle: saline
[18] = dose: 400.0 mg/kg/injection, schedule: Q01DX001 (ip), vehicle: saline

Measured: T/C

CC(=O)OC(C[N+](=O)[O-])C(Cl)(Cl)Cl (configuration not stated)
inactive: dose: 6.25 mg/kg/injection, schedule: Q01DX009 (ip), vehicle: saline sonified 107 % of control | dose: 12.5 mg/kg/injection, schedule: Q01DX009 (ip), vehicle: saline sonified 107 % of control | dose: 12.5 mg/kg/injection, schedule: Q04DX003 (ip), vehicle: Klucel (hydroxypropylcellulose) (HPC) 97 % of control | dose: 25.0 mg/kg/injection, schedule: Q01DX009 (ip), vehicle: saline sonified 106 % of control | dose: 25.0 mg/kg/injection, schedule: Q04DX003 (ip), vehicle: Klucel (hydroxypropylcellulose) (HPC) 103 % of control

N#CC1(C#N)C2C=CC(C3CCC=C32)C1(C#N)C#N (configuration not stated)
inactive: [1] 109 % of control | dose: 25.0 mg/kg/injection, schedule: Q01DX009 (ip), vehicle: saline with Tween-80 96 % of control | dose: 25.0 mg/kg/injection, schedule: Q04DX003 (ip), vehicle: saline with Tween-80 104 % of control | dose: 50.0 mg/kg/injection, schedule: Q01DX009 (ip), vehicle: saline with Tween-80 111 % of control | dose: 50.0 mg/kg/injection, schedule: Q04DX003 (ip), vehicle: saline with Tween-80 95 % of control | [2] 93 % of control

Nc1ccc(P(=O)(O)c2ccc(N)cc2)cc1
inactive: dose: 75.0 mg/kg/injection, schedule: Q01DX001 (ip), vehicle: carboxymethylcellulose (CMC) 94 % of control | dose: 150.0 mg/kg/injection, schedule: Q01DX001 (ip), vehicle: carboxymethylcellulose (CMC) 97 % of control | dose: 300.0 mg/kg/injection, schedule: Q01DX001 (ip), vehicle: carboxymethylcellulose (CMC) 103 % of control

Cc1cc(Cl)c(Cl)cc1NC(=O)Nc1cccc(F)c1
inactive: [3] 94 % of control | [4] 100 % of control | [5] 94 % of control

Cc1ccc([N+](=O)[O-])cc1NC(=O)N(CCC#N)C1CCCCC1
inactive: [6] 101 % of control | [7] 105 % of control | [8] 95 % of control

O=Cc1cccn1-c1cccc2c(-n3cccc3C=O)cccc12
inactive: dose: 25.0 mg/kg/injection, schedule: Q04DX002 (ip), vehicle: Klucel (hydroxypropylcellulose) (HPC) 97 % of control | dose: 50.0 mg/kg/injection, schedule: Q04DX002 (ip), vehicle: Klucel (hydroxypropylcellulose) (HPC) 93 % of control | dose: 100.0 mg/kg/injection, schedule: Q04DX002 (ip), vehicle: Klucel (hydroxypropylcellulose) (HPC) 97 % of control

CC(C)c1ccc2c(c1)CC[C@H]1[C@](C)(C(=O)O)CCC[C@]21C
inactive: [9] 101 % of control | [10] 105 % of control | [11] 105 % of control

CC(C)(C)c1ccc(SSc2ccc(C(C)(C)C)cc2)cc1
inactive: dose: 50.0 mg/kg/injection, schedule: Q01DX009 (ip), vehicle: Klucel (hydroxypropylcellulose) (HPC) 94 % of control | [6] 94 % of control | [12] 94 % of control | [7] 98 % of control | [13] 91 % of control | [8] 96 % of control | [14] 92 % of control

Cn1[nH]nnc1=S
inactive: [2] 97 % of control | [15] 112 % of control

O=C1Nc2ccc3c4c(ccc1c24)CC3
inactive: dose: 50.0 mg/kg/injection, schedule: Q01DX001 (ip), vehicle: saline 104 % of control | [16] 95 % of control | [17] 98 % of control | [18] 98 % of control

Nc1nc(N)c2cc(NCc3ccc(Br)cc3)ccc2n1
inactive: dose: 6.25 mg/kg/injection, schedule: Q01DX009 (ip), vehicle: saline with Tween-80 103 % of control | [1] 100 % of control | dose: 25.0 mg/kg/injection, schedule: Q04DX003 (ip), vehicle: saline 96 % of control

O=C(Nc1ccc(NC(=O)/C(Cl)=C/Cl)c2c1C(=O)c1ccccc1C2=O)/C(Cl)=C/Cl
inactive: dose: 100.0 mg/kg/injection, schedule: Q01DX001 (ip), vehicle: carboxymethylcellulose (CMC) 92 % of control | dose: 200.0 mg/kg/injection, schedule: Q01DX001 (ip), vehicle: carboxymethylcellulose (CMC) 92 % of control | dose: 400.0 mg/kg/injection, schedule: Q01DX001 (ip), vehicle: carboxymethylcellulose (CMC) 100 % of control

COc1ccc2nc3cc(Cl)ccc3c(NCCCSCCCl)c2n1
inactive: dose: 2.0 mg/kg/injection, schedule: Q01DX009 (ip), vehicle: saline 116 % of control | dose: 8.0 mg/kg/injection, schedule: Q01DX009 (ip), vehicle: saline 109 % of control

O=C(Nc1ccc(Cl)c(Cl)c1)OCn1ncc2ccc([N+](=O)[O-])cc21
inactive: [17] 96 % of control | [18] 100 % of control

C=CC(=O)NC(C)C(=O)O (configuration not stated)
inactive: [16] 95 % of control | [17] 102 % of control | [18] 98 % of control

CCCCCCCCCCC(=O)N(CC)CC
inactive: dose: 100.0 mg/kg/injection, schedule: Q01DX009 (ip), vehicle: carboxymethylcellulose (CMC) 97 % of control and 92 % of control | dose: 100.0 mg/kg/injection, schedule: Q04DX002 (ip), vehicle: carboxymethylcellulose (CMC) 94 % of control | dose: 200.0 mg/kg/injection, schedule: Q01DX009 (ip), vehicle: carboxymethylcellulose (CMC) 97 % of control and 100 % of control | dose: 200.0 mg/kg/injection, schedule: Q04DX002 (ip), vehicle: carboxymethylcellulose (CMC) 96 % of control | dose: 400.0 mg/kg/injection, schedule: Q01DX009 (ip), vehicle: carboxymethylcellulose (CMC) 96 % of control | dose: 400.0 mg/kg/injection, schedule: Q04DX002 (ip), vehicle: carboxymethylcellulose (CMC) 100 % of control

O=c1c2ccccc2sc2c1ccc1c2ccc2c(=O)c3ccccc3sc21
inactive: [2] 96 % of control | [15] 87 % of control

[Co+2].[NH-]C(CC(N)=O)C(=O)O.[NH-]C(CC(N)=O)C(=O)O (configuration not stated)
inactive: dose: 100.0 mg/kg/injection, schedule: Q04DX002 (ip), vehicle: saline 108 % of control | dose: 200.0 mg/kg/injection, schedule: Q04DX002 (ip), vehicle: saline 86 % of control

CCOC(=O)C(Cc1ccc(OCc2ccccc2)c(OCc2ccccc2)c1)(NC=O)C(=O)OCC
inactive: dose: 100.0 mg/kg/injection, schedule: Q01DX001 (ip), vehicle: other 94 % of control | dose: 200.0 mg/kg/injection, schedule: Q01DX001 (ip), vehicle: other 92 % of control | dose: 400.0 mg/kg/injection, schedule: Q01DX001 (ip), vehicle: other 87 % of control

CCCCC#CCCl
inactive: [16] 102 % of control | dose: 100.0 mg/kg/injection, schedule: Q01DX009 (ip), vehicle: saline 94 % of control | [17] 103 % of control | [18] 111 % of control

O=C(Nc1ccc(NC(=O)OCc2ccccc2)c(Cl)c1)OCc1ccccc1
inactive: dose: 75.0 mg/kg/injection, schedule: Q01DX001 (ip), vehicle: Klucel (hydroxypropylcellulose) (HPC) 93 % of control | dose: 75.0 mg/kg/injection, schedule: Q01DX009 (ip), vehicle: Klucel (hydroxypropylcellulose) (HPC) 92 % of control | dose: 150.0 mg/kg/injection, schedule: Q01DX001 (ip), vehicle: Klucel (hydroxypropylcellulose) (HPC) 95 % of control | dose: 150.0 mg/kg/injection, schedule: Q01DX009 (ip), vehicle: Klucel (hydroxypropylcellulose) (HPC) 94 % of control | dose: 300.0 mg/kg/injection, schedule: Q01DX001 (ip), vehicle: Klucel (hydroxypropylcellulose) (HPC) 95 % of control | dose: 300.0 mg/kg/injection, schedule: Q01DX009 (ip), vehicle: Klucel (hydroxypropylcellulose) (HPC) 94 % of control

CCOC(=O)c1ccc(NC(=S)NC(=O)C(C)Oc2ccccc2)cc1 (configuration not stated)
inactive: [9] 102 % of control | [3] 92 % of control and 103 % of control | dose: 100.0 mg/kg/injection, schedule: Q04DX002 (ip), vehicle: saline with Tween-80 93 % of control and 106 % of control | [2] 93 % of control | [10] 94 % of control | [4] 99 % of control and 112 % of control | dose: 200.0 mg/kg/injection, schedule: Q04DX002 (ip), vehicle: saline with Tween-80 93 % of control and 106 % of control | [15] 93 % of control | [11] 108 % of control | [5] 97 % of control and 100 % of control | dose: 400.0 mg/kg/injection, schedule: Q04DX002 (ip), vehicle: saline with Tween-80 92 % of control and 93 % of control

O=CNC(c1ccccc1)(c1ccccc1)c1ccccc1
inactive: [6] 99 % of control | [12] 102 % of control | [7] 91 % of control | [13] 94 % of control | [8] 91 % of control | [14] 102 % of control
